Measurements: US12642791B2, “Inhibitors of lysyl oxidases” (UNIVERSITY OF SOUTH CAROLINA, priority 2021, dated 2026)
Like-named read-outs stand apart in the source and are kept apart here.

Columns and labels:
MDA-MB-231 cells = test: Migration assay (RTCA CIM plate); format: cell-based, human; details: 20 μM, 48 hours
Method: FIG. 37. LOX inhibitors, 6232, 6403 and 6415, reduced the migration capacity of the TNBC cell lines. RTCA-CIM plate used to measure the real-time migration of MDA-MB-231 cells upon treatment with 20 μM of 6232, 6403 and 6415 for 48 hours. (* p<0.05; ** p<0.01)
RTCA CIM Plate was used to assess the migration capacity of the cells upon LOX inhibitor treatment according to manufacturer's instructions. Briefly, 160 μl of 10% FBS containing media was added into each bottom chamber/50 μl of FBS free media into upper chamber and incubated 1 hour at 37° C. After the background measurement, 5×10^4 cells were seeded in FBS-free media into upper chamber in the presence of LOX inhibitors or vehicle. After the 30 min incubation at RT, real time cell migration was recorded for 48 hours.

HFF cells = test: Fibrosis assay (TGF-beta induced, alpha-SMA and fibronectin staining); format: cell-based, human; details: 10 uM compound, 1 hour pretreatment, TGF-β 48 hours
Method: FIG. 40. […] 24 hours serum-starved HFF cells were pretreated with inhibitors 1 hours. Then, fibrosis was induced by […] of TGF-β for 48 hours in HFF cells. ALK5 (10 μM) inhibitor is used as a negative control. LOX inhibitors 6232, 6403 and 6415 were used at 10 uM concentration. HFF cells were stained with alpha-SMA and fibronectin primary antibodies. Nucleus of the cells was labeled with DAPI.
Human foreskin fibroblasts (HFF), see Li, M. et al. Icaritin inhibits skin fibrosis through regulating AMPK and Wnt/β-catenin signaling. Cell Biochemistry and Biophysics 79, 231-238 (2021), cells were seeded into μ-Slide 8-well glass bottom chambers (Ibidi, Germany). Next day, media of the cells were replaced with 0.5% FBS contain media and incubated with 24 hours. Then, cells were pretreated either with ALK5 inhibitor (Sellekchem, USA) or LOX inhibitors for 1 hour and cells were incubated with 10 ng/ml of TGF-beta (R&D Biosystems, USA) for 48 hours. Staining of the markers followed the same procedure described in the Immunofluorescence section above.

MAO-B = biological target: T1, MAO-B (Homo sapiens, UniProt P27338); test: MAO-GLO assay; format: biochemical; details: cell-free enzymatic activity assay
T1 construct: purchased Active Motif, USA
T1 sequence (P27338 1-520): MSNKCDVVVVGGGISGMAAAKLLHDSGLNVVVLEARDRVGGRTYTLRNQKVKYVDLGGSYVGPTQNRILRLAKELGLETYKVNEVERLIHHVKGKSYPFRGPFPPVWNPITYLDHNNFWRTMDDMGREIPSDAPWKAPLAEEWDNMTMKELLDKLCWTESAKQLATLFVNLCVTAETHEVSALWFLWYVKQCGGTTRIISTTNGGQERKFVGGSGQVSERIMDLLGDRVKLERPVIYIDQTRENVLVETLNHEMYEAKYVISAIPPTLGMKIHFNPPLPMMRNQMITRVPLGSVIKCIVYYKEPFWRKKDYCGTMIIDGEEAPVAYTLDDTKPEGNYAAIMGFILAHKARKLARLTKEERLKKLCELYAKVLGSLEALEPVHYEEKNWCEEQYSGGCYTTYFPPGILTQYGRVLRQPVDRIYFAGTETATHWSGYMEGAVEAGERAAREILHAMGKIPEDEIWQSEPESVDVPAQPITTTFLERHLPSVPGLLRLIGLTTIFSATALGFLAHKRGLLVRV
Method: (§1) MAO-GLO assay (Promega, USA) was used to measure the MAO-A and MAO-B activity upon LOX inhibitor treatment according to the manufacturer's instructions. For the enzyme activity, substrate was used at a concentration of 160 μM and 16 μM for MAO-A and MAO-B, respectively. MAO-A and MAO-B enzymes (Active Motif, USA) were used in 0.2 μg/per well. Reaction mix, enzymes, and drugs (30, 10, 3, 1, 0.3, and 0.1 nM) were mixed and incubated for 3 hours at RT. Then, 50 μl of luciferin was added into wells and incubated for 20 min at RT. Luciferase signals were measured by using a multimode reader.

MAO-A = biological target: T2, MAO-A (Homo sapiens, UniProt P21397); test: MAO-GLO assay; format: biochemical; details: cell-free enzymatic activity assay
T2 construct: purchased Active Motif, USA
T2 sequence (P21397 1-527): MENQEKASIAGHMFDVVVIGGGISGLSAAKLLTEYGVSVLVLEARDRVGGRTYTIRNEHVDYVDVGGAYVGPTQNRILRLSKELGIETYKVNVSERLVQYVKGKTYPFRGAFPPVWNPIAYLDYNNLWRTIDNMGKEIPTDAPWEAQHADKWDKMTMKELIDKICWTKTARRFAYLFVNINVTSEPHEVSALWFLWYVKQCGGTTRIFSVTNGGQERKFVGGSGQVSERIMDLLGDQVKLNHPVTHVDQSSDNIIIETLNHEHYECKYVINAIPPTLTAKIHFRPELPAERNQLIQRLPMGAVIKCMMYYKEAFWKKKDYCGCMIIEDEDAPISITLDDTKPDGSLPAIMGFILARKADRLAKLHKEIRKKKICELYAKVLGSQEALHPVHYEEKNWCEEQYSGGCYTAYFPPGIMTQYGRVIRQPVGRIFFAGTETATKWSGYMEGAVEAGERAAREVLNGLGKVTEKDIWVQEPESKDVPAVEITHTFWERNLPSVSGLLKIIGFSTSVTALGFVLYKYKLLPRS
Method: as §1

[1] = system: cellular lysyl oxidase activity, ACHN; test: Cell-based LOX activity in kidney cancer cell line; parameters: species or system human; details: uM range
Method: FIG. 38. Dose dependent inhibition of cellular LOX activity and growth inhibition in 3D upon treatment with 6232 and its analogs, 6403 and 6415.in ACHN cancer cell line. Inhibition of cell-based LOX activity in ACHN (A) and growth inhibition in collagen:matrigel (1:1) culture (B) cancer cell lines upon treatment with LOX inhibitors 6232, 6403 and 6415 (uM range). BAPN is used as a positive control (mM range) in 3D cell viability assay. Growth inhibition was measured by using 3D Cell Titer Glo kit.
(§2) For cell-based lysyl oxidase activity, fluorometric Lysly Oxidase Activity Assay Kit (Abcam, USA) was used according to manufacturer's instructions. Briefly, after the treatment, 50 μl of supernatant from each well was incubated with reagent mix and fluorescence measured in multimode-reader at Ex/Em=540/590 nm wavelength.

[2] = system: cellular lysyl oxidase (LOX) activity, MDA-MB-231 cells; test: Cell-based lysyl oxidase activity assay (Abcam kit); parameters: species or system human
Source text: As the available LOX inhibitors are either not very potent or have toxicity, the inventors developed a robust screening pipeline shown in FIG. 28 to identify potent and safe LOX-specific and pan-LOX inhibitors. Briefly, a high-throughput cell-based LOX activity (Abcam) screen (HTS) was done for more than 5,000 drug-like compounds from the EXPRESS-Pick diversified library (4,480 molecules, ChemBridge) and Tocriscreen library of bioactive compounds (1,280 compounds, Tocris), each at a single concentration of 10 μM. […] The toxic molecules were counter screened with cell cytotoxicity assay and filtered out.
FIGS. 34. […] IC50 for cellular lysyl oxidase activity upon treatment of MDA-MB-231 cells with different LOX inhibitors. uM=microM.
as §2

[3] = read-out: cellular LOX activity

MAO-B activity inhibition (MAO-B) | MAO-A activity inhibition (MAO-A) | IC50 [2, 3] [nM] | IC50 ([2]; read-out: IC50 for cellular lysyl oxidase inhibition) [nM] | SMILES | migration capacity (MDA-MB-231 cells) | TGF-β-induced fibrosis (alpha-SMA, fibronectin staining) (HFF cells) | cellular lysyl oxidase activity inhibition [1] | cellular lysyl oxidase inhibition compared to BAPN [2]
did not inhibit | did not inhibit | – | – | Cc1nc(N)sc1-c1csc(Nc2ccc([N+](=O)[O-])cc2)n1 [compound 6232, 4-methyl-5-[2-(4-nitroanilino)thiazol-4-yl]thiazol-2-amine] | inhibited the migration capacity | inhibited the TGF-β-induced fibrosis | dose dependent cellular lysyl oxidase activity inhibition | more potent
did not inhibit | did not inhibit | 3500 | – | Cc1nc(N)sc1-c1csc(N(C)c2ccc(O)cc2)n1 [compound 6415, 4-[[4-(2-amino-4-methyl-thiazol-5-yl)thiazol-2-yl]-methyl-amino]phenol] | inhibited the migration capacity | inhibited the TGF-β-induced fibrosis | dose dependent cellular lysyl oxidase activity inhibition | more potent
did not inhibit | did not inhibit | 1300 | 1300 | CC(=O)Nc1ccc(Nc2nc(-c3sc(N)nc3C)cs2)cc1 [compound 6403, N-[4-[[4-(2-amino-4-methyl-thiazol-5-yl)thiazol-2-yl]amino]phenyl]acetamide] | inhibited the migration capacity | inhibited the TGF-β-induced fibrosis | dose dependent cellular lysyl oxidase activity inhibition | more potent
